Laboratory results taken from patent US20230263822A1, “MODULATION OF FACTOR 11 EXPRESSION” (Ionis Pharmaceuticals, Inc., priority 2008, published 2023).

Tests used:
[1] = test system: human Factor 11 mRNA; test: Dose-dependent inhibition of human Factor 11 in HepG2 cells, lipofectin 2.34-75 nM (Example 5); assay type: cell-based; conditions: for percent inhibition of human Factor 11 mRNA relative to untreated control cells: ~16 hours
Procedure: Cells were plated at a density of 10,000 cells per well and transfected using lipofectin reagent with 2.34 nM, 4.69 nM, 9.375 nM, 18.75 nM, 37.5 nM, and 75 nM concentrations of antisense oligonucleotide, as specified in Table 11. After a treatment period of approximately 16 hours, RNA was isolated from the cells and human Factor 11 mRNA levels were measured by quantitative real-time PCR. Human Factor 11 primer probe set RTS 2966 was used to measure mRNA levels. Factor 11 mRNA levels were adjusted according to total RNA content, as measured by RIBOGREEN. Results are presented as percent inhibition of human Factor 11, relative to untreated control cells.

[2] = test system: human Factor 11 mRNA; test: Dose-dependent inhibition of human Factor 11 in HepG2 cells, electroporation 625-20,000 nM (Example 5); assay type: cell-based; conditions: ~16 hours
Procedure: The gapmers were also transfected via electroporation and their dose dependent inhibition of human Factor 11 mRNA was measured. Cells were plated at a density of 20,000 cells per well and transfected via electroporation with 625 nM, 1250 nM, 2500 nM, 5,000 nM, 10,000 nM, and 20,000 nM concentrations of antisense oligonucleotide, as specified in Table 12. After a treatment period of approximately 16 hours, RNA was isolated from the cells and human Factor 11 mRNA levels were measured by quantitative real-time PCR. Human Factor 11 primer probe set RTS 2966 was used to measure mRNA levels. Factor 11 mRNA levels were adjusted according to total RNA content, as measured by RIBOGREEN. Results are presented as percent inhibition of human Factor 11, relative to untreated control cells.

Substance | IC50 [1] [nM] | percent inhibition of human Factor 11 mRNA relative to untreated control cells ([1]; 2.34 nM) [%] | percent inhibition of human Factor 11 mRNA relative to untreated control cells ([1]; 4.69 nM) [%] | percent inhibition of human Factor 11 mRNA relative to untreated control cells ([1]; 9.375 nM) [%] | percent inhibition of human Factor 11 mRNA relative to untreated control cells ([1]; 18.75 nM) [%] | percent inhibition of human Factor 11 mRNA relative to untreated control cells ([1]; 37.5 nM) [%] | percent inhibition of human Factor 11 mRNA relative to untreated control cells ([1]; 75 nM) [%] | percent inhibition of human Factor 11 mRNA relative to untreated control cells ([2]; 625 nM) [%] | percent inhibition of human Factor 11 mRNA relative to untreated control cells ([2]; 1250 nM) [%] | percent inhibition of human Factor 11 mRNA relative to untreated control cells ([2]; 2500 nM) [%] | percent inhibition of human Factor 11 mRNA relative to untreated control cells ([2]; 5000 nM) [%] | percent inhibition of human Factor 11 mRNA relative to untreated control cells ([2]; 10000 nM) [%] | percent inhibition of human Factor 11 mRNA relative to untreated control cells ([2]; 20000 nM) [%]
417002 (antisense GGTGCACAGTTTCTGGCAGG; 2-13-5 gapmer chemistry, further chemistry not given here) [compound 417002] | 12 | 17 | 26 | 49 | 61 | 81 | 84 | 59 | 72 | 86 | 90 | 94 | 96
416999 (antisense GCACAGTTTCTGGCAGGCCT; 2-13-5 gapmer chemistry, further chemistry not given here) [compound 416999] | 14 | 10 | 26 | 42 | 62 | 72 | 80 | 61 | 82 | 89 | 94 | 94 | 97
